With `CN1CCN(c2ccccc2-c2ccc(C(=O)NCc3ccc(Cl)cc3)[nH]2)CC1.Cl` the melting point was 80 °C (dec.).
In the case of `CN1CCN(c2ccccc2-c2ccc(C(=O)Nc3ccc(Cl)cc3)s2)CC1.Cl`, the melting point is reported as 149 °C (dec.).
In the case of `COc1ccc(CNC(=O)c2ccc(-c3ccccc3N3CCN(C)CC3)s2)cc1.Cl`, the melting point is reported as 140 °C (dec.).
For `CN1CCN(c2ccccc2-c2ccc(C(=O)NCc3ccc(Cl)cc3)o2)CC1.Cl.O` (hydrate or solvate), the melting point was 110 °C (dec.).
Work on `CN1CCN(c2ccc(F)cc2-c2ccc(C(=O)NCc3ccc(Cl)cc3)s2)CC1.O` (hydrate or solvate) yielded a melting point of 175 to 176.5 °C.
With `CN1CCN(c2ccccc2-c2ccc(C(=O)Nc3ccc(Cl)cc3)o2)CC1.Cl.O` (hydrate or solvate) the melting point was 145 °C (dec.).
For `CN1CCN(c2ccccc2-c2ccc(C(=O)NCc3ccc(Cl)cc3)s2)CC1.Cl.O` (hydrate or solvate), the melting point was 256 to 257 °C.
With `CN1CCN(c2ccccc2-c2ccc(C(=O)NCc3ccccc3)s2)CC1.Cl.O.O` (hydrate or solvate) the melting point was 145 °C (dec.).
In the case of `CN1CCN(c2ccccc2-c2ccc(C(=O)NCc3ccc(F)cc3)s2)CC1.Cl.O` (hydrate or solvate), the melting point is reported as 187 to 188 °C.
